Results from patent US20250228239A1, “MOLECULES HAVING PESTICIDAL UTILITY, AND INTERMEDIATES, COMPOSITIONS, AND PROCESSES, RELATED THERETO” (priority 2024, published 2025).
Where two headings read alike, the source gives them in different places.

Tests used:
[1] = tested on: Beet Armyworm (Spodoptera exigua, LAPHEG); assay: Bioassays on Beet Armyworm (BAW), 128-well diet tray assay; assay type: in vivo; details: Spodoptera exigua
Method in brief: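 Percent larval mortality, averaged across eight wells, scored after five to seven days at 25° C. under 14:10 light-dark. Each well held one to five second instars feeding on diet dosed at 50 μg/cm^2 with compound from 90:10 acetone-water, solvent dried off.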

[2] = tested on: Cabbage Looper (Trichoplusia ni, TRIPNI); assay: Bioassays on Cabbage Looper (CL), 128-well diet tray assay; assay type: in vivo; details: Trichoplusia ni
Method in brief: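 One to five second-instar larvae per well on artificial diet surface-treated with 50 μg/cm^2 test molecule (applied in 90:10 acetone-water, dried). Held 5–7 days at 25° C, 14:10 light-dark; percent mortality recorded per well and averaged over eight wells.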

[3] = Beet Armyworm, rating class, read-out: BAW
[4] = Cabbage Looper, rating class, read-out: CL
[5] = Beet Armyworm, Table ABC / ABC-DP rating, read-out: BAW rating
[6] = Cabbage Looper, Table ABC / ABC-DP rating, read-out: CL rating
[7] = Table ABC: Biological Results, species BAW, read-out: BAW
[8] = Table ABC: Biological Results, species CL, read-out: CL

Q: For `O=C(Nc1cc(NC(=O)C(F)(F)F)c(F)cc1F)c1cc(NC(=O)[C@H]2[C@H](c3ccc(F)c(C(F)(F)F)c3)C2(Cl)Cl)ccc1Cl` [F1541, 2-Chloro-5-((1R,3R)-2,2-dichloro-3-(4-fluoro-3-(trifluoromethyl)phenyl)cyclopropane-1-carboxamido)-N-(2,4-difluoro-5-(2,2,2-trifluoroacetamido)phenyl)benzamide], which pest or weed control at 50 µg/cm2 [1, 3] is on record?
A: 50 to 100%

Q: What about the pest or weed control at 50 µg/cm2 [2, 4] of the same compound?
A: 50 to 100%

Q: For `CC(=O)Nc1c(F)ccc(NC(=O)c2cc(NC(=O)[C@H]3[C@H](c4cc(Cl)c(Cl)c(Cl)c4)C3(Cl)Cl)ccc2Cl)c1F` [F1532, N-(3-Acetamido-2,4-difluorophenyl)-2-chloro-5-((1R,3R)-2,2-dichloro-3-(3,4,5-trichlorophenyl)cyclopropane-1-carboxamido)benzamide], which pest or weed control at 50 µg/cm2 [1, 3] is on record?
A: 50 to 100%

Q: What about the pest or weed control at 50 µg/cm2 [2, 4] of the same compound?
A: 50 to 100%

Q: How did the pest or weed control at 50 µg/cm2 [1, 3] turn out when `N#CC1(C(=O)Nc2c(F)ccc(NC(=O)c3cc(NC(=O)[C@H]4[C@H](c5ccc(Cl)c(Cl)c5)C4(Cl)Cl)ccc3Cl)c2F)CC1` [F1609, 2-Chloro-N-(3-(1-cyanocyclopropane-1-carboxamido)-2,4-difluorophenyl)-5-((1R,3R)-2,2-dichloro-3-(3,4-dichlorophenyl)cyclopropane-1-carboxamido)benzamide] was run?
A: 50 to 100%

Q: What about the pest or weed control at 50 µg/cm2 [2, 4] of the same compound?
A: 50 to 100%

Q: Which pest or weed control at 50 µg/cm2 [1, 5] does the source give for `O=C(Nc1c(F)ccc(NC(=O)c2cc(NC(=O)[C@H]3[C@H](c4ccc(F)c(C(F)(F)F)c4)C3(Cl)Cl)ccc2Cl)c1F)c1ccno1` [F1816, N-(3-(2-Chloro-5-((1R,3R)-2,2-dichloro-3-(4-fluoro-3-(trifluoromethyl)phenyl)cyclopropane-1-carboxamido)benzamido)-2,6-difluorophenyl)isoxazole-5-carboxamide] here?
A: 50 to 100%

Q: What about the pest or weed control at 50 µg/cm2 [2, 6] of the same compound?
A: 50 to 100%

Q: How did the pest or weed control at 50 µg/cm2 [1, 7] turn out when `O=C(Nc1ccc(F)c(NCc2ccc([N+](=O)[O-])cc2)c1F)c1cc(NC(=O)[C@H]2[C@H](c3ccc(F)c(C(F)(F)F)c3)C2(Cl)Cl)ccc1Cl` [F1296, 2-Chloro-5-((1R,3R)-2,2-dichloro-3-(4-fluoro-3-(trifluoromethyl)phenyl)cyclopropane-1-carboxamido)-N-(2,4-difluoro-3-((4-nitrobenzyl)amino)phenyl)benzamide] was run?
A: 50 to 100%

Q: What about the pest or weed control at 50 µg/cm2 [2, 8] of the same compound?
A: 50 to 100%

Q: What does the source list for `O=C(Nc1ccc(F)c(NC(=O)C(F)(F)C(F)(F)C(F)(F)F)c1F)c1cc(NC(=O)[C@H]2[C@H](c3ccc(F)c(Cl)c3)C2(Cl)Cl)ccc1Cl` [F1741, 2-Chloro-5-((1R,3R)-2,2-dichloro-3-(3-chloro-4-fluorophenyl)cyclopropane-1-carboxamido)-N-(2,4-difluoro-3-(2,2,3,3,4,4,4-heptafluorobutanamido)phenyl)benzamide]?
A: pest or weed control at 50 µg/cm2 [1, 3]: 50 to 100%; pest or weed control at 50 µg/cm2 [2, 4]: 50 to 100%

Q: How did the pest or weed control at 50 µg/cm2 [1, 3] turn out when `O=C(Nc1cc(NC(=O)C(F)F)c(F)cc1F)c1cc(NC(=O)[C@H]2[C@H](c3ccc(F)c(C(F)(F)F)c3)C2(Cl)Cl)cc(F)c1Cl` [F1406, 2-Chloro-5-((1R,3R)-2,2-dichloro-3-(4-fluoro-3-(trifluoromethyl)phenyl)cyclopropane-1-carboxamido)-N-(5-(2,2-difluoroacetamido)-2,4-difluorophenyl)-3-fluorobenzamide] was run?
A: 50 to 100%

Q: And the pest or weed control at 50 µg/cm2 [2, 4]?
A: 50 to 100%

Q: Which pest or weed control at 50 µg/cm2 [1, 7] does the source give for `O=C(Nc1ccc(F)cc1)c1cc(NC(=O)[C@H]2[C@H](c3ccc(F)c(Cl)c3)C2(Cl)Cl)cc(Cl)c1F` (relative stereo) [F1195, trans-3-Chloro-5-(2,2-dichloro-3-(3-chloro-4-fluorophenyl)cyclopropane-1-carboxamido)-2-fluoro-N-(4-fluorophenyl)benzamide] here?
A: 50 to 100%

Q: And the pest or weed control at 50 µg/cm2 [2, 8]?
A: 50 to 100%

Q: Which results are given for `O=C(Nc1ccc(F)cc1F)c1c(F)ccc(NC(=O)[C@H]2[C@H](c3ccc(F)c(Cl)c3)C2(Cl)Cl)c1F` (relative stereo) [F1086, trans-3-(2,2-Dichloro-3-(3-chloro-4-fluorophenyl)cyclopropane-1-carboxamido)-N-(2,4-difluorophenyl)-2,6-difluorobenzamide]?
A: pest or weed control at 50 µg/cm2 [1, 7]: 50 to 100%; pest or weed control at 50 µg/cm2 [2, 8]: 50 to 100%

Q: What does the source list for `O=C(Nc1ccc(F)c(NC(=O)[C@@H]2CCCN2)c1F)c1cc(NC(=O)[C@H]2[C@H](c3ccc(Cl)c(Cl)c3)C2(Cl)Cl)ccc1Cl` [F1664, (S)—N-(3-(2-chloro-5-((1R,3R)-2,2-dichloro-3-(3,4-dichlorophenyl)cyclopropane-1-carboxamido)benzamido)-2,6-difluorophenyl)pyrrolidine-2-carboxamide]?
A: pest or weed control at 50 µg/cm2 [1, 3]: 50 to 100%; pest or weed control at 50 µg/cm2 [2, 4]: 50 to 100%

Q: `O=C(Nc1cc(NC(=O)C(F)F)c(F)cc1F)c1cc(NC(=O)[C@H]2[C@H](c3cc(Cl)c(Cl)c(Cl)c3)C2(Cl)Cl)cc(F)c1F` [F1580, 5-((1R,3R)-2,2-Dichloro-3-(3,4,5-trichlorophenyl)cyclopropane-1-carboxamido)-N-(5-(2,2-difluoroacetamido)-2,4-difluorophenyl)-2,3-difluorobenzamide] was tested. Which pest or weed control at 50 µg/cm2 [1, 3] did it give?
A: 50 to 100%

Q: What about the pest or weed control at 50 µg/cm2 [2, 4] of the same compound?
A: 50 to 100%

Q: For `O=C(Nc1ccc(F)c(NC(=O)C2CCCO2)c1F)c1cc(NC(=O)[C@H]2[C@H](c3cc(Cl)c(Cl)c(Cl)c3)C2(Cl)Cl)ccc1Cl` (stereo partly drawn) [F1647, N-(3-(2-Chloro-5-((1R,3R)-2,2-dichloro-3-(3,4,5-trichlorophenyl)cyclopropane-1-carboxamido)benzamido)-2,6-difluorophenyl)tetrahydrofuran-2-carboxamide], which pest or weed control at 50 µg/cm2 [1, 3] is on record?
A: 50 to 100%

Q: And the pest or weed control at 50 µg/cm2 [2, 4]?
A: 50 to 100%

Q: Which results are given for `O=C(NN=CC1CC1)c1cc(NC(=O)[C@H]2[C@H](c3cc(Cl)cc(Cl)c3)C2(Cl)Cl)ccc1Cl` (relative stereo) [F3007, trans-2,2-Dichloro-N-(4-chloro-3-(2-(cyclopropylmethylene)hydrazine-1-carbonyl)phenyl)-3-(3,5-dichlorophenyl)cyclopropane-1-carboxamide]?
A: mortality at 50 µg/cm2 ([1]; 168 h, second instar larvae, 50 μg/cm^2 of test molecule on artificial diet, 25° C., five to seven days, average of eight wells, read-out: BAW % Control (or Mortality) rating): 50 to 100%; pest or weed control at 50 µg/cm2 [1, 5]: 50 to 100%; mortality at 50 µg/cm2 ([2]; 168 h, second instar larvae, 50 μg/cm^2 of test molecule on artificial diet, 25° C., five to seven days, average of eight wells, read-out: CL % Control (or Mortality) rating): 50 to 100%; pest or weed control at 50 µg/cm2 [2, 6]: 50 to 100%

Q: How did the pest or weed control at 50 µg/cm2 [1, 3] turn out when `CC(=O)C(=O)Nc1c(F)ccc(NC(=O)c2cc(NC(=O)[C@H]3[C@H](c4ccc(F)c(C(F)(F)F)c4)C3(Cl)Cl)ccc2Cl)c1F` [F1754, 2-Chloro-5-((1R,3R)-2,2-dichloro-3-(4-fluoro-3-(trifluoromethyl)phenyl)cyclopropane-1-carboxamido)-N-(2,4-difluoro-3-(2-oxopropanamido)phenyl)benzamide] was run?
A: 50 to 100%

Q: And the pest or weed control at 50 µg/cm2 [2, 4]?
A: 50 to 100%

Q: `O=C(Nc1c(F)ccc(NC(=O)c2cc(NC(=O)[C@H]3[C@H](c4ccc(F)c(C(F)(F)F)c4)C3(Cl)Cl)ccc2Cl)c1F)c1cccnc1` [F1206, N-(3-(2-Chloro-5-((1R,3R)-2,2-dichloro-3-(4-fluoro-3-(trifluoromethyl)phenyl)cyclopropane-1-carboxamido)benzamido)-2,6-difluorophenyl)nicotinamide] was tested. Which pest or weed control at 50 µg/cm2 [1, 7] did it give?
A: 50 to 100%

Q: What about the pest or weed control at 50 µg/cm2 [2, 8] of the same compound?
A: 50 to 100%

Q: Which results are given for `Nc1c(F)ccc(NC(=O)c2cc(NC(=O)[C@H]3[C@H](c4ccc(Cl)c(Cl)c4)C3(Cl)Cl)cc(F)c2Cl)c1F` [F1284, N-(3-Amino-2,4-difluorophenyl)-2-chloro-5-((1R,3R)-2,2-dichloro-3-(3,4-dichlorophenyl)cyclopropane-1-carboxamido)-3-fluorobenzamide]?
A: pest or weed control at 50 µg/cm2 [1, 7]: 50 to 100%; pest or weed control at 50 µg/cm2 [2, 8]: 50 to 100%

Q: With `CN(NC(=O)c1cc(NC(=O)[C@H]2[C@H](c3cc(Cl)cc(Cl)c3)C2(Cl)Cl)ccc1Cl)C(=O)c1ccccc1` (relative stereo) [F2527, trans-N-(3-(2-Benzoyl-2-methylhydrazine-1-carbonyl)-4-chlorophenyl)-2,2-dichloro-3-(3,5-dichlorophenyl)cyclopropane-1-carboxamide] as the compound, how does the pest or weed control at 50 µg/cm2 [1, 5] read?
A: 50 to 100%

Q: What about the pest or weed control at 50 µg/cm2 [2, 6] of the same compound?
A: 50 to 100%

Q: Which results are given for `Cc1cc(NC(=O)[C@H]2[C@H](c3ccc(Cl)c(Cl)c3)C2(Cl)Cl)cc(C(=O)Nc2cc(NC(=O)C(F)F)c(F)cc2F)c1Cl` [F1496, 2-Chloro-5-((1R,3R)-2,2-dichloro-3-(3,4-dichlorophenyl)cyclopropane-1-carboxamido)-N-(5-(2,2-difluoroacetamido)-2,4-difluorophenyl)-3-methylbenzamide]?
A: pest or weed control at 50 µg/cm2 [1, 3]: 50 to 100%; pest or weed control at 50 µg/cm2 [2, 4]: 50 to 100%
